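Cells were grown in 96-well plates and exposed to each compound for 48 hours at five concentrations; endpoints were interpolated linearly between bracketing concentrations, or set to the highest concentration if not reached. At the GI50, growth is halved. At the TGI there is no net growth.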
Columns and labels:
Assay in all cases: NCI tumour cell line growth inhibition, 48 h
SK-MEL-2 melanoma = test system: SK-MEL-2 melanoma
NCI/ADR-RES ovarian = test system: NCI/ADR-RES ovarian
SW-620 colon = test system: SW-620 colon
ACHN renal = test system: ACHN renal
MDA-MB-231 breast = test system: MDA-MB-231 breast
UO-31 renal = test system: UO-31 renal
OVCAR-4 ovarian = test system: OVCAR-4 ovarian
HOP-62 NSCLC = test system: HOP-62 NSCLC
K-562 leukemia = test system: K-562 leukemia
SF-539 CNS = test system: SF-539 CNS
MOLT-4 leukemia = test system: MOLT-4 leukemia
SR leukemia = test system: SR leukemia
NCI-H23 lung = test system: NCI-H23 lung
TK-10 renal = test system: TK-10 renal
RPMI-8226 leukemia = test system: RPMI-8226 leukemia
UACC-257 melanoma = test system: UACC-257 melanoma
MALME-3M melanoma = test system: MALME-3M melanoma
U251 CNS = test system: U251 CNS
CAKI-1 renal = test system: CAKI-1 renal
A549 NSCLC = test system: A549 NSCLC
SF-295 CNS = test system: SF-295 CNS
SF-268 CNS = test system: SF-268 CNS
COLO 205 colon = test system: COLO 205 colon
786-0 renal = test system: 786-0 renal
HCT-15 colon = test system: HCT-15 colon
PC-3 prostate = test system: PC-3 prostate
RXF 393 renal = test system: RXF 393 renal
OVCAR-5 ovarian = test system: OVCAR-5 ovarian
NCI-H522 lung = test system: NCI-H522 lung

CCN(CC)CCCC(C)Nc1c2ccc(Cl)cc2nc2ccc(O)cc12 (configuration not stated)
TGI (SK-MEL-2 melanoma): 19.9 µM
GI50 (NCI/ADR-RES ovarian): 11 µM
TGI (NCI/ADR-RES ovarian): 26.4 µM
GI50 (SW-620 colon): 1160 nM
TGI (SW-620 colon): 4.13 µM
GI50 (ACHN renal): 1170 nM
TGI (ACHN renal): 2810 nM
GI50 (MDA-MB-231 breast): 2000 nM
TGI (MDA-MB-231 breast): 5.39 µM
GI50 (UO-31 renal): 1180 nM
TGI (UO-31 renal): 2650 nM
GI50 (OVCAR-4 ovarian): 1880 nM
TGI (OVCAR-4 ovarian): 4.66 µM
GI50 (HOP-62 NSCLC): 1490 nM
TGI (HOP-62 NSCLC): 5.32 µM
GI50 (K-562 leukemia): 2220 nM
TGI (K-562 leukemia): 8.94 µM
GI50 (SF-539 CNS): 1630 nM
TGI (SF-539 CNS): 3.14 µM
GI50 (MOLT-4 leukemia): 1310 nM
TGI (MOLT-4 leukemia): 13.6 µM
GI50 (SR leukemia): 2070 nM
TGI (SR leukemia): 7.11 µM
GI50 (NCI-H23 lung): 3.18 µM
TGI (NCI-H23 lung): 13.6 µM
GI50 (TK-10 renal): 1740 nM
TGI (TK-10 renal): 3.91 µM
GI50 (RPMI-8226 leukemia): 2400 nM
TGI (RPMI-8226 leukemia): 6.76 µM
GI50 (UACC-257 melanoma): 1700 nM
TGI (UACC-257 melanoma): 3.31 µM
GI50 (MALME-3M melanoma): 1420 nM
TGI (MALME-3M melanoma): 2870 nM
GI50 (U251 CNS): 2490 nM
TGI (U251 CNS): 11.4 µM
GI50 (CAKI-1 renal): 2250 nM
TGI (CAKI-1 renal): 6.1 µM
GI50 (A549 NSCLC): 1470 nM
TGI (A549 NSCLC): 3.67 µM
GI50 (SF-295 CNS): 1730 nM
TGI (SF-295 CNS): 3.76 µM
GI50 (SF-268 CNS): 2040 nM
TGI (SF-268 CNS): 11.3 µM
GI50 (COLO 205 colon): 1170 nM
TGI (COLO 205 colon): 2630 nM
GI50 (786-0 renal): 2770 nM
TGI (786-0 renal): 11.9 µM
GI50 (HCT-15 colon): 2980 nM
TGI (HCT-15 colon): 11 µM
GI50 (PC-3 prostate): 3.58 µM
TGI (PC-3 prostate): 18.5 µM
GI50 (RXF 393 renal): 1610 nM
TGI (RXF 393 renal): 4.27 µM
GI50 (OVCAR-5 ovarian): 2210 nM
TGI (OVCAR-5 ovarian): 7.78 µM
GI50 (NCI-H522 lung): 1280 nM
TGI (NCI-H522 lung): 3.71 µM

From PubChem BioAssay (NCI)
